Results from US20230183224A1, “BEZOXAZINE DERIVATIVES USEFUL AS MONOACYLGLYCEROL LIPASE INHIBITORS” (Hoffmann-La Roche Inc., priority 2017, published 2023).

biological target: T1, MAGL (recombinant wild-type) (Homo sapiens, UniProt Q99685); assay: MAGL inhibitory activity, hydrolysis of 4-nitrophenylacetate to 4-nitrophenol (absorbance at 405 nm); type: biochemical; conditions: 1 nM MAGL, 300 μM 4-nitrophenylacetate, 15 min preincubation at RT, slope of absorbance at 405 nm between 5 and 80 min
T1 sequence (Q99685 1-303): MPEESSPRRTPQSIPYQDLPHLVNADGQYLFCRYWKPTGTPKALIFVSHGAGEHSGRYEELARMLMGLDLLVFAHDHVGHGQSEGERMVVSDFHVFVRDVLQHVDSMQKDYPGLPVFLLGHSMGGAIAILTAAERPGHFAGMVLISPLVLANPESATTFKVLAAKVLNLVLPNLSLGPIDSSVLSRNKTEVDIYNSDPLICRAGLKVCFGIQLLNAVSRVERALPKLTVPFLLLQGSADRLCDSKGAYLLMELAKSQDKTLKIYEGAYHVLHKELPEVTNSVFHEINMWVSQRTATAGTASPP
Method: Compounds were profiled for MAGL inhibitory activity by measuring the enzymatic activity of MAGL by following the hydrolysis of 4-nitorphenylacetate resulting in 4-nitrophenol, which absorbs at 405-412 nm (G. G. Muccioli, G. Labar, D. M. Lambert, Chem. Bio. Chem. 2008, 9, 2704-2710).
The assay was carried out in 384 well assay plates (black with clear bottom, non-binding surface treated, Corning Ref. 3655) in a total volume of 40 μL. Compound dilutions were made in 100% DMSO (VWR Chemicals 23500.297) in a polypropylene plate in 3-fold dilution steps to give a final concentration range in the assay from 25 μM to 1.7 nM. 1 μL compound dilutions (100% DMSO) were added to 19 μL MAGL (recombinant wild-type) in assay buffer (50 mM TRIS (GIBCO, 15567-027), 1 mM EDTA (Fluka, 03690-100 ml)). The plate was shaked for 1 min at 2000 rpm (Variomag Teleshake) and then incubated for 15 min at RT. To start the reaction, 20 μL 4-Nitrophenlyacetate (Sigma N-8130) in assay buffer with 6% EtOH was added. The final concentrations in the assay were 1 nM MAGL and 300 μM 4-Nitrophenylacetate. After shaking (1 m, 2000 rpm) and 5 min incubation at RT, the absorbance at 405 nm was measured for a first time (Molecular Devices, SpectraMax Paradigm). A second measurement was then done after incubation for 80 min at RT. From the two measurements, the slope was calculated by subtracting the first from the second measurement.

Row | IC50 [nM] | Structure (SMILES)
1 | 4240 | O=C1COc2ccc(C(=O)N3CCC(C(=O)N4CCCCC4)CC3)cc2N1 [Example 27, 6-[4-(piperidine-1-carbonyl)piperidine-1-carbonyl]-4H-1,4-benzoxazin-3-one]
2 | 112 | O=C1COc2ccc(C(=O)N3CCN(Cc4ccc(C(F)(F)F)cc4)C(C(F)(F)F)C3)cc2N1 (stereo not drawn) [Example 36, 6-[3-(trifluoromethyl)-4-[[4-(trifluoromethyl)phenyl]methyl]piperazine-1-carbonyl]-4H-1,4-benzoxazin-3-one]
3 | 220 | O=C1COc2ccc(C(=O)N3CCC(Cc4cccc(C(F)(F)F)c4)C3)cc2N1 (stereo not drawn) [Example 30, 6-[3-[[3-(trifluoromethyl)phenyl]methyl]pyrrolidine-1-carbonyl]-4H-1,4-benzoxazin-3-one]
4 | 310 | O=C1COc2ccc(C(=O)N3CCC(N(C(=O)Cc4ccccc4)C4CC4)CC3)cc2N1 [Example 33, N-cyclopropyl-N-[1-(3-oxo-4H-1,4-benzoxazine-6-carbonyl)piperidin-4-yl]-2-phenylacetamide]
5 | 840 | O=C1COc2ccc(C(=O)N3CCC(Cc4ccccc4)C3)cc2N1 (stereo not drawn) [Example 28, 6-(3-benzylpyrrolidine-1-carbonyl)-4H-1,4-benzoxazin-3-one]
6 | 1830 | O=C1COc2ccc(C(=O)N3CCN(CCc4cccc(Cl)c4)C(c4cc[nH]n4)C3)cc2N1 (stereo not drawn) [Example 35, 6-[4-[2-(3-chlorophenyl)ethyl]-3-(1H-pyrazol-3-yl)piperazine-1-carbonyl]-4H-1,4-benzoxazin-3-one]
7 | 2060 | O=C1COc2ccc(C(=O)N3CCC(Cc4ccccc4)CC3)nc2N1 [Example 26, 6-(4-benzylpiperidine-1-carbonyl)-4H-pyrido[3,2-b][1,4]oxazin-3-one]
8 | 2180 | O=C1COc2ccc(C(=O)N3CCN(C(=O)c4ccc(C(F)(F)F)cc4)CC3)cc2N1 [Example 32, 6-[4-[4-(trifluoromethyl)benzoyl]piperazine-1-carbonyl]-4H-1,4-benzoxazin-3-one]
9 | 2250 | O=C1COc2ccc(C(=O)N3CCN(Cc4ccc(C(F)(F)F)cc4)C(c4cc[nH]n4)C3)cc2N1 (stereo not drawn) [Example 37, 6-[3-(1H-pyrazol-3-yl)-4-[[4-(trifluoromethyl)phenyl]methyl]piperazine-1-carbonyl]-4H-1,4-benzoxazin-3-one]
10 | 449 | CC1CN(C(=O)c2ccc3c(c2)NC(=O)CO3)CCN1Cc1ccc(C(F)(F)F)cc1 (stereo not drawn) [Example 34, 6-[3-methyl-4-[[4-(trifluoromethyl)phenyl]methyl]piperazine-1-carbonyl]-4H-1,4-benzoxazin-3-one]
11 | 400 | O=C1COc2ccc(C(=O)N3CCC(Cc4ccc(C(F)(F)F)cc4)C3)cc2N1 (stereo not drawn) [Example 31, 6-[3-[[4-(trifluoromethyl)phenyl]methyl]pyrrolidine-1-carbonyl]-4H-1,4-benzoxazin-3-one]
12 | 150 | O=C1COc2ccc(C(=O)N3CC(Cc4ccc(C(F)(F)F)cc4)C3)cc2N1 [Example 29, 6-[3-[[4-(trifluoromethyl)phenyl]methyl]azetidine-1-carbonyl]-4H-1,4-benzoxazin-3-one]

More lines, now with the values behind:

Row | Structure (SMILES) | IC50 [nM]
13 | O=C1COc2ccc(C(=O)N3CCC(Oc4ccc(C(F)(F)F)cc4)CC3)cc2N1 [Example 15, 6-[4-[4-(trifluoromethyl)phenoxy]piperidine-1-carbonyl]-4H-1,4-benzoxazin-3-one] | 76
14 | COc1cccc(CC2CCN(C(=O)c3ccc4c(c3)NC(=O)CO4)CC2)c1 [Example 6, 6-[4-[(3-methoxyphenyl)methyl]piperidine-1-carbonyl]-4H-1,4-benzoxazin-3-one] | 52
15 | O=C1COc2ccc(C(=O)N3CCC(Cc4cccc(F)c4F)CC3)cc2N1 [Example 16, 6-[4-[(2,3-difluorophenyl)methyl]piperidine-1-carbonyl]-4H-1,4-benzoxazin-3-one] | 66
16 | O=C1COc2ccc(C(=O)N3CCC(C(=O)c4ccccc4)CC3)cc2N1 [Example 13, 6-(4-benzoylpiperidine-1-carbonyl)-4H-1,4-benzoxazin-3-one] | 320
17 | O=C1COc2ccc(C(=O)N3CCC(Cc4ccc(F)cc4)CC3)cc2N1 [Example 3, 6-[4-[(4-fluorophenyl)methyl]piperidine-1-carbonyl]-4H-1,4-benzoxazin-3-one] | 88
18 | O=C1COc2ccc(C(=O)N3CCC(Cc4ccc(Cl)cc4)CC3)cc2N1 [Example 12, 6-[4-[(4-chlorophenyl)methyl]piperidine-1-carbonyl]-4H-1,4-benzoxazin-3-one] | 48
19 | CN(C(=O)c1ccccc1)C1CCN(C(=O)c2ccc3c(c2)NC(=O)CO3)CC1 [Example 25, N-methyl-N-[1-(3-oxo-4H-1,4-benzoxazine-6-carbonyl)piperidin-4-yl]benzamide] | 830
20 | O=C1COc2ccc(C(=O)N3CCC(O)(Cc4ccccc4)CC3)cc2N1 [Example 7, 6-(4-benzyl-4-hydroxypiperidine-1-carbonyl)-4H-1,4-benzoxazin-3-one] | 4350
21 | O=C1COc2ccc(C(=O)N3CCC(Cc4ccccc4)CC3)cc2N1 [Example 1, 6-(4-benzylpiperidine-1-carbonyl)-4H-1,4-benzoxazin-3-one] | 101
22 | O=C1COc2ccc(C(=O)N3CCC(N4C[C@@H](c5ccccc5)OC4=O)CC3)cc2N1 [Example 19, 6-[4-[(5R)-2-oxo-5-phenyl-1,3-oxazolidin-3-yl]piperidine-1-carbonyl]-4H-1,4-benzoxazin-3-one] | 2490
23 | O=C1COc2ccc(C(=O)N3CCC(N4C[C@H](c5ccccc5)OC4=O)CC3)cc2N1 [Example 11, 6-[4-[(5S)-2-oxo-5-phenyl-1,3-oxazolidin-3-yl]piperidine-1-carbonyl]-4H-1,4-benzoxazin-3-one] | 1260
24 | O=C1COc2ccc(C(=O)N3CCC(F)(Cc4ccc(Cl)cc4)CC3)cc2N1 [Example 23, 6-[4-[(4-chlorophenyl)methyl]-4-fluoropiperidine-1-carbonyl]-4H-1,4-benzoxazin-3-one] | 300
25 | O=C1COc2ccc(C(=O)N3CCC(Cc4cccc(F)c4)CC3)cc2N1 [Example 8, 6-[4-[(3-fluorophenyl)methyl]piperidine-1-carbonyl]-4H-1,4-benzoxazin-3-one] | 47
26 | COc1ccc(CC2CCN(C(=O)c3ccc4c(c3)NC(=O)CO4)CC2)cc1 [Example 5, 6-[4-[(4-methoxyphenyl)methyl]piperidine-1-carbonyl]-4H-1,4-benzoxazin-3-one] | 170
27 | O=C1COc2ccc(C(=O)N3CCC(S(=O)(=O)c4ccccc4)CC3)cc2N1 [Example 10, 6-[4-(benzenesulfonyl)piperidine-1-carbonyl]-4H-1,4-benzoxazin-3-one] | 4220
28 | O=C1COc2ccc(C(=O)N3CCC(Oc4ccccc4)C3)cc2N1 (stereo not drawn) [Example 18, 6-(3-phenoxypyrrolidine-1-carbonyl)-4H-1,4-benzoxazin-3-one] | 1040
29 | O=C1COc2ccc(C(=O)N3CCC(Cc4ccccc4-c4ccccc4)CC3)cc2N1 [Example 21, 6-[4-[(2-phenylphenyl)methyl]piperidine-1-carbonyl]-4H-1,4-benzoxazin-3-one] | 130
30 | N#Cc1ccc(CC2CCN(C(=O)c3ccc4c(c3)NC(=O)CO4)CC2)cc1 [Example 20, 4-[[1-(3-oxo-4H-1,4-benzoxazine-6-carbonyl)piperidin-4-yl]methyl]benzonitrile] | 370
31 | O=C1COc2ccc(C(=O)N3CCC(Cc4ccc(C(F)(F)F)cc4)CC3)cc2N1 [Example 4, 6-[4-[[4-(trifluoromethyl)phenyl]methyl]piperidine-1-carbonyl]-4H-1,4-benzoxazin-3-one] | 34.7
32 | O=C1COc2ccc(C(=O)N3CCC(Oc4ccccc4)CC3)cc2N1 [Example 14, 6-(4-phenoxypiperidine-1-carbonyl)-4H-1,4-benzoxazin-3-one] | 990
33 | O=C1COc2ccc(C(=O)N3CCC(Cc4cccc(C(F)(F)F)c4)CC3)cc2N1 [Example 17, 6-[4-[[3-(trifluoromethyl)phenyl]methyl]piperidine-1-carbonyl]-4H-1,4-benzoxazin-3-one] | 39.5
34 | O=C1COc2ccc(C(=O)N3CCC(Cc4cc(F)cc(F)c4)CC3)cc2N1 [Example 9, 6-[4-[(3,5-difluorophenyl)methyl]piperidine-1-carbonyl]-4H-1,4-benzoxazin-3-one] | 58
35 | O=C1COc2ccc(C(=O)N3CCC(Cc4ccccn4)CC3)cc2N1 [Example 22, 6-[4-(pyridin-2-ylmethyl)piperidine-1-carbonyl]-4H-1,4-benzoxazin-3-one] | 1700
36 | O=C1COc2c(F)cc(C(=O)N3CCC(Cc4ccccc4)CC3)cc2N1 [Example 24, 6-(4-benzylpiperidine-1-carbonyl)-8-fluoro-4H-1,4-benzoxazin-3-one] | 140
